Columns and labels:
[1] = target: E. coli BL21(DE3) pyruvate kinase PykA (EC 2.7.1.40), N-terminal (His)6, SEQ ID NO 1, free in solution (Escherichia coli, UniProt P21599); conditions: free enzyme (ratio 0), apparent
[2] = target: E. coli BL21(DE3) pyruvate kinase PykA (EC 2.7.1.40), N-terminal (His)6, SEQ ID NO 1, on mixed 525 QD/NPL (Escherichia coli, UniProt P21599); conditions: ratio 2 enzyme per NP
Text: To examine the display of enzymes on mixed NP scaffolds, next examined was the individual activity of Pyka and LDH at a ratio of 2 enzyme per NP in representative samples comprising of three different ratios of 525 QD to NPL, see Table 3.

[3] = target: T1, E. coli BL21(DE3) lactate dehydrogenase LDH (EC 1.1.1.28), N-terminal (His)6, SEQ ID NO 2, free in solution (Escherichia coli, UniProt P52643); assay: Michaelis Menten kinetics of LDH free in solution; type: biochemical, E. coli strain BL21(DE3); conditions: free enzyme (ratio 0), apparent
T1 sequence (P52643 with tags, fused parts or gaps): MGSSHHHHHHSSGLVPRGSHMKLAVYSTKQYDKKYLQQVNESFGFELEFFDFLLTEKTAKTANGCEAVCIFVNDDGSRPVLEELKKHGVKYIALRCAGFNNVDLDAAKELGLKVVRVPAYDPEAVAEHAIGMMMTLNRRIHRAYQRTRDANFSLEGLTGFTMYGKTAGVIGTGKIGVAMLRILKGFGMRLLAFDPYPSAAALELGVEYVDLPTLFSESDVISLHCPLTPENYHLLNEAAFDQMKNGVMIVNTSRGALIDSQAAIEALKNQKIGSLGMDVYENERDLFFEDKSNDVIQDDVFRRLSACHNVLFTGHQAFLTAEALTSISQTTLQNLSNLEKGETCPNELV

[4] = target: T2, E. coli BL21(DE3) lactate dehydrogenase LDH (EC 1.1.1.28), N-terminal (His)6, SEQ ID NO 2, assembled on 525 QDs (Escherichia coli, UniProt P52643); assay: Michaelis Menten kinetics of LDH assembled on 525 QDs; type: biochemical, E. coli strain BL21(DE3); conditions: apparent
T2 sequence (P52643 with tags, fused parts or gaps): T1 sequence (P52643 with tags, fused parts or gaps)
Text: (§1) The latter are a quasi-two-dimensional QD-like material. As noted above in the Definitions section, NP or nanomaterial is used interchangeable to refer generically to these materials while QDs and NPLs are used to specify a given type. The NP materials were surface functionalized with the zwitterionic dihydrolipoic acid derivative compact ligand 4 (CL4, see U.S. Pat. No. 8,859,284), which replace the hydrophobic ligands utilized during nanomaterial crystal growth for colloidal stability in aqueous buffers. For enzyme attachment or bioconjugation to the NPs, self-assembly was driven by metal affinity coordination of the enzyme's pendant (His)6-motifs to the QD's ZnS shell.

[5] = target: T3, E. coli BL21(DE3) lactate dehydrogenase LDH (EC 1.1.1.28), N-terminal (His)6, SEQ ID NO 2, assembled on 625 QDs (Escherichia coli, UniProt P52643); assay: Michaelis Menten kinetics of LDH assembled on 625 QDs; type: biochemical, E. coli strain BL21(DE3); conditions: apparent
T3 sequence (P52643 with tags, fused parts or gaps): T1 sequence (P52643 with tags, fused parts or gaps)
Text: as §1

[6] = target: T4, E. coli BL21(DE3) lactate dehydrogenase LDH (EC 1.1.1.28), N-terminal (His)6, SEQ ID NO 2, assembled on 641 QDs (Escherichia coli, UniProt P52643); assay: Michaelis Menten kinetics of LDH assembled on 641 QDs; type: biochemical, E. coli strain BL21(DE3); conditions: apparent
T4 sequence (P52643 with tags, fused parts or gaps): T1 sequence (P52643 with tags, fused parts or gaps)
Text: as §1

[7] = target: T5, E. coli BL21(DE3) lactate dehydrogenase LDH (EC 1.1.1.28), N-terminal (His)6, SEQ ID NO 2, assembled on NPLs (Escherichia coli, UniProt P52643); assay: Michaelis Menten kinetics of LDH assembled on NPLs; type: biochemical, E. coli strain BL21(DE3); conditions: ratio 1 LDH per NPL, apparent
T5 sequence (P52643 with tags, fused parts or gaps): T1 sequence (P52643 with tags, fused parts or gaps)
Text: as §1

[8] = target: T6, E. coli BL21(DE3) lactate dehydrogenase LDH (EC 1.1.1.28), N-terminal (His)6, SEQ ID NO 2, on mixed 525 QD/NPL (Escherichia coli, UniProt P52643); type: biochemical, E. coli strain BL21(DE3); conditions: 0.75 nM 525 QD/0.5 nM NPL, ratio 2 per NP, apparent
T6 sequence (P52643 with tags, fused parts or gaps): T1 sequence (P52643 with tags, fused parts or gaps)
Text: as §1

[9] = substrate: CC(=O)C(=O)O; assay: Michaelis Menten kinetics of LDH free in solution; type: biochemical, E. coli strain BL21(DE3); conditions: other: free enzyme (ratio 0), apparent, pH 8.0

E. coli BL21(DE3) pyruvate kinase PykA (EC 2.7.1.40), N-terminal (His)6, SEQ ID NO 1, on mixed 525 QD/NPL, sequence (P21599 whole entry, added parts left off): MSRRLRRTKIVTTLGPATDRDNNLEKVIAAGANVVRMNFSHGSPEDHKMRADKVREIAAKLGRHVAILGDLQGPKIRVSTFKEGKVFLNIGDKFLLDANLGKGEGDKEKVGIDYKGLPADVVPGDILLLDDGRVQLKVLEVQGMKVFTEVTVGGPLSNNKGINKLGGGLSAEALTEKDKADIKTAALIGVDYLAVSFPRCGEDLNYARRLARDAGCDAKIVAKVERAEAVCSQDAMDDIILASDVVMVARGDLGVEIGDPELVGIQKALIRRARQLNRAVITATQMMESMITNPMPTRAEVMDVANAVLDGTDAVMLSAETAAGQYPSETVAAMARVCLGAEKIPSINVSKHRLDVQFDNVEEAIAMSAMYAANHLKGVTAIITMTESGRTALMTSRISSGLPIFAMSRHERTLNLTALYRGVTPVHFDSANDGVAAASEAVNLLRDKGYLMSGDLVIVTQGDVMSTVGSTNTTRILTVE
E. coli BL21(DE3) pyruvate kinase PykA (EC 2.7.1.40), N-terminal (His)6, SEQ ID NO 1, free in solution, sequence (P21599 whole entry, added parts left off): as above

C=C(OP(=O)(O)O)C(=O)O [PEP, phosphoenolpyruvic acid]
kcat [1]: 25 s⁻¹
kcat [2]: 13.3 s⁻¹

CC(=O)C(=O)O [pyruvic acid]
kcat [3]: 13.3 s⁻¹
kcat/KM [3]: 0.015 ± 0.007 M⁻¹ s⁻¹
VMax ([4]; ratio 1 LDH per QD): 40.0 ± 6 nM/s
kcat ([4]; ratio 1 LDH per QD): 15.9 ± 0.4 s⁻¹
kcat/KM ([4]; ratio 1 LDH per QD): 0.015 ± 0.0005 M⁻¹ s⁻¹
VMax ([4]; ratio 2 LDH per QD): 45.0 ± 1 nM/s
kcat/KM ([4]; ratio 2 LDH per QD): 0.02 ± 0.007 M⁻¹ s⁻¹
VMax ([4]; ratio 4 LDH per QD): 40.0 ± 1 nM/s
kcat ([4]; ratio 4 LDH per QD): 15.5 ± 0.1 s⁻¹
kcat/KM ([4]; ratio 4 LDH per QD): 0.014 ± 0.004 M⁻¹ s⁻¹
VMax ([4]; ratio 8 LDH per QD): 57.0 ± 1 nM/s
kcat/KM ([4]; ratio 8 LDH per QD): 0.015 ± 0.003 M⁻¹ s⁻¹
VMax ([5]; ratio 1 LDH per QD): 69.0 ± 1 nM/s
kcat/KM ([5]; ratio 1 LDH per QD): 0.021 ± 0.005 M⁻¹ s⁻¹
VMax ([5]; ratio 2 LDH per QD): 58.0 ± 3 nM/s
kcat/KM ([5]; ratio 2 LDH per QD): 0.023 ± 0.004 M⁻¹ s⁻¹
VMax ([5]; ratio 4 LDH per QD): 49.0 ± 1 nM/s
kcat ([5]; ratio 4 LDH per QD): 19.5 ± 0.1 s⁻¹
kcat/KM ([5]; ratio 4 LDH per QD): 0.018 ± 0.005 M⁻¹ s⁻¹
VMax ([5]; ratio 8 LDH per QD): 52.0 ± 1 nM/s
kcat ([5]; ratio 8 LDH per QD): 20.7 ± 0.1 s⁻¹
kcat/KM ([5]; ratio 8 LDH per QD): 0.017 ± 0.005 M⁻¹ s⁻¹
VMax ([6]; ratio 1 LDH per QD): 8.3 ± 0.1 nM/s
kcat ([6]; ratio 1 LDH per QD): 3.32 ± 0.1 s⁻¹
kcat/KM ([6]; ratio 1 LDH per QD): 0.006 ± 0.002 M⁻¹ s⁻¹
VMax ([6]; ratio 2 LDH per QD): 7.7 ± 0.3 nM/s
kcat/KM ([6]; ratio 2 LDH per QD): 0.0038 ± 0.0007 M⁻¹ s⁻¹
VMax ([6]; ratio 4 LDH per QD): 3.6 ± 0.5 nM/s
kcat ([6]; ratio 4 LDH per QD): 1.45 ± 0.1 s⁻¹
kcat/KM ([6]; ratio 4 LDH per QD): 0.0021 ± 0.001 M⁻¹ s⁻¹
VMax ([6]; ratio 8 LDH per QD): 2.6 ± 0.3 nM/s
kcat ([6]; ratio 8 LDH per QD): 1.04 ± 0.1 s⁻¹
kcat/KM ([6]; ratio 8 LDH per QD): 0.0013 ± 0.0003 M⁻¹ s⁻¹
kcat [7]: 32.3 s⁻¹
VMax [8]: 53.0 ± 1 nM/s
kcat/KM [8]: 0.019 ± 0.002 M⁻¹ s⁻¹

B1: E. coli BL21(DE3) lactate dehydrogenase LDH (EC 1.1.1.28), N-terminal (His)6, SEQ ID NO 2, free in solution (Escherichia coli K-12) (protein)
chain: T1 sequence (P52643 with tags, fused parts or gaps)
Km [9]: 900 ± 400 µM
Vmax [9]: 1.98 µM/min

— patent US20250197842A1, “IMPROVING ENZYMATIC CHANNELING EFFICIENCY VIA MIXED NANOPARTICLE SCAFFOLDS WITHIN SELF-ASSEMBLED NANOPARTICLE ENZYME CLUSTERS” (The Government of the United States of America, as …, priority 2023, published 2025)
